Converted amounts (≈) assume the structure as drawn. Where a SMILES comes first, the peptide text is derived from it. [ ]: non-standard residue; d: D form. pGlu = O=C1CC[C@@H](C(=O)O)N1
Experiments:
LNCaP = test: cells; format: cell-based, human; conditions: 48 h; for Cytotoxicity (IC50) LNCaP: human
Method: (§1) To evaluate anticancer activities of the produced peptides on various types of cancer cells, MTT analysis was performed. Human prostate cancer cell lines (LNCaP, PC3, and DU145), human breast cancer cell lines (MDA-MB-231 and MCF-7), lung cancer cell line (A549), and ovarian cancer cell line (SKOV3) were cultured in RPMI media supplemented with 1% penicillin/streptomycin and 1% fetal bovine serum (all from Life Technologies, Grand Island, NY). The cells were seeded in 96-well plates containing 100 μL of growth media for 24 h. The media were removed, and then 100 μL of the peptide (solvent DPBS) at each concentration was added to each well and incubated at 37° C. for 48 h. After incubation for 48 h, 100 μL of MTT reagent was added to each well. The cells were incubated at 37° C. for 4 h, and then the supernatant was removed. Formazan crystals were dissolved in 100 μL of DMSO with gentle stirring at 37° C. for 10 min. The absorbance per well was measured at 540 nm using a VERSA max microplate reader (Molecular Devices Corp.).

MCF-7 = test: cells; format: cell-based, human; conditions: for Cytotoxicity (IC50) MCF-7: human, 48 h
Method: as §1

A549 = test: MTT cytotoxicity on various cancer cells (Table 1); format: cell-based, human; conditions: for Cytotoxicity (IC50) A549: human, 48 h
Method: as §1

DU145 = test: MTT cytotoxicity on various cancer cells (Table 1); format: cell-based, human; conditions: for Cytotoxicity (IC50) DU145: human, 48 h
Method: as §1

PC3 = test: MTT cytotoxicity on various cancer cells (Table 1); format: cell-based, human; conditions: for Cytotoxicity (IC50) PC3: human, 48 h
Method: as §1

SKOV3 = test: MTT cytotoxicity on various cancer cells (Table 1); format: cell-based, human; conditions: for Cytotoxicity (IC50) SKOV3: human, 48 h
Method: as §1

[1] = target: T1, gonadotropin-releasing hormone (GnRH) receptor (UniProt P30968 1-328, limits assumed); test: cell-based or functional assay
T1 sequence (looked up): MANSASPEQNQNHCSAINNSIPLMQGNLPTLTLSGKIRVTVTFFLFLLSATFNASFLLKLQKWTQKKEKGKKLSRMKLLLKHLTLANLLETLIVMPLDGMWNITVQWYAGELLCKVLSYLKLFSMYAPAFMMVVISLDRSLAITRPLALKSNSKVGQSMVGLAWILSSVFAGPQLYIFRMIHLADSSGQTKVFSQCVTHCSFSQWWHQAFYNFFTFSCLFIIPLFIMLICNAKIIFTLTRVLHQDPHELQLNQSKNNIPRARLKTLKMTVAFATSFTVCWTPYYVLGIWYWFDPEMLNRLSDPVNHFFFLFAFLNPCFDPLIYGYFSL

| CRE-luciferase activity in HEK293-GnRHR cells [1] [fold] | Molecule | Cytotoxicity (IC50) LNCaP (LNCaP) [µg/mL] | Cytotoxicity (IC50) MCF-7 (MCF-7) [µg/mL] | Cytotoxicity (IC50) A549 (A549) [µg/mL] | Cytotoxicity (IC50) DU145 (DU145) [µg/mL] | Cytotoxicity (IC50) PC3 (PC3) [µg/mL] | Cytotoxicity (IC50) SKOV3 (SKOV3) [µg/mL] | IC50 (LNCaP; Homo sapiens, LNCaP, read-out: Cytotoxicity (IC50) LNCaP) [µg/mL] | IC50 (MCF-7; Homo sapiens, MCF7, 48 h, read-out: Cytotoxicity (IC50) MCF-7) [µg/mL] | IC50 (A549; Homo sapiens, A549, 48 h, read-out: Cytotoxicity (IC50) A549) [µg/mL] | IC50 (DU145; Homo sapiens, DU-145, 48 h, read-out: Cytotoxicity (IC50) DU145) [µg/mL] | IC50 (PC3; Homo sapiens, PC-3, 48 h, read-out: Cytotoxicity (IC50) PC3) [µg/mL] | IC50 (SKOV3; Homo sapiens, SK-OV-3, 48 h, read-out: Cytotoxicity (IC50) SKOV3) [µg/mL] |
| --- | --- | --- | --- | --- | --- | --- | --- | --- | --- | --- | --- | --- | --- |
|  | CC(C)C[C@H](NC(=O)[C@H](C)NC(=O)[C@@H]1CCCN1C(=O)[C@H](CCCNC(=N)N)NC(=O)[C@H](C)NC(=O)[C@@H](N)CCC(=O)O)C(=O)N[C@@H](CC(C)C)C(=O)N[C@@H](CO)C(=O)N[C@H](C(=O)N[C@@H](CCCNC(=N)N)C(=O)N[C@@H](CC(C)C)C(=O)N[C@@H](CCCNC(=N)N)C(=O)N1CCC[C@H]1C(=O)O)[C@@H](C)O [HS1001] (H-EARPALLSTRLRP-OH; N-terminus and C-terminus assumed) | 6.55 ± 0.96 | 48.26 ± 1.23 | 4.18 ± 0.15 | 7.82 ± 0.37 | 8.05 ± 1.58 | 6.14 ± 0.79 |  |  |  |  |  |  |
|  | CCNC(=O)[C@@H]1CCCN1C(=O)[C@@H](NC(=O)[C@H](Cc1ccccc1)NC(=O)[C@H](CCCNC(=N)N)NC(=O)[C@@H]1CCCN1C(=O)[C@H](C)NC(=O)[C@H](Cc1ccc(O)cc1)NC(=O)[C@H](CO)NC(=O)[C@H](Cc1c[nH]c2ccccc12)NC(=O)[C@H](Cc1c[nH]cn1)NC(=O)[C@@H]1CCC(=O)N1)[C@@H](C)CC [HS1003] ([pGlu]HWSYAPRFIP-NHEt; C-terminus assumed) | 10.9 ± 0.48 | 47.28 ± 2.05 | 9.48 ± 0.08 | 12.37 ± 0.31 | 24.05 ± 1.13 | 5.79 ± 0.38 |  |  |  |  |  |  |
|  | CCNC(=O)[C@@H]1CCCN1C(=O)[C@@H](NC(=O)[C@H](Cc1ccccc1)NC(=O)[C@H](C)NC(=O)[C@H](CC(C)C)NC(=O)[C@H](CCCNC(=N)N)NC(=O)[C@H](Cc1ccc(O)cc1)NC(=O)[C@H](CO)NC(=O)[C@H](Cc1c[nH]c2ccccc12)NC(=O)[C@H](Cc1c[nH]cn1)NC(=O)[C@@H]1CCC(=O)N1)[C@@H](C)CC [HS1004] ([pGlu]HWSYRLAFIP-NHEt; C-terminus assumed) | 9.97 ± 0.85 | 37.47 ± 1.58 |  | 17.54 ± 0.74 | 16.49 ± 0.74 | 5.19 ± 0.82 |  |  |  |  |  |  |
|  | CC(C)C[C@H](NC(=O)[C@H](C)NC(=O)[C@@H]1CCCN1C(=O)[C@H](CCCNC(=N)N)NC(=O)[C@H](C)NC(=O)[C@@H](N)CCC(=O)O)C(=O)N[C@@H](CC(C)C)C(=O)N[C@@H](CO)C(=O)N[C@H](C(=O)N[C@@H](CCCNC(=N)N)C(=O)N[C@@H](Cc1ccccc1)C(=O)N[C@@H](CCCNC(=N)N)C(=O)N1CCC[C@H]1C(=O)N[C@@H](CCCCN)C(=O)O)[C@@H](C)O [HS1005] (H-EARPALLSTRFRPK-OH; N-terminus and C-terminus assumed) | 11.23 ± 1.01 | 44.15 ± 2.63 | 14.75 ± 0.83 | 16.17 ± 1.28 | 13.31 ± 1.05 | 14.08 ± 1.04 |  |  |  |  |  |  |
|  | CC(C)C[C@H](NC(=O)CNC(=O)[C@@H](NC(=O)[C@H](CO)NC(=O)[C@H](CC(C)C)NC(=O)[C@H](CC(C)C)NC(=O)[C@H](C)NC(=O)[C@@H]1CCCN1C(=O)[C@H](CCCNC(=N)N)NC(=O)[C@H](C)NC(=O)[C@@H](N)CCC(=O)O)[C@@H](C)O)C(=O)N[C@@H](CCCNC(=N)N)C(=O)N1CCC[C@H]1C(=O)N[C@@H](CCCCN)C(=O)O [HS1006] (H-EARPALLSTGLRPK-OH; N-terminus and C-terminus assumed) | 14.17 ± 0.47 | 55.24 ± 2.41 | 10.68 ± 0.25 | 19.46 ± 0.26 | 15.2 ± 1.12 | 13.91 ± 1.17 |  |  |  |  |  |  |
|  | CC(=O)O[C@H]1C(=O)[C@@]2(C)[C@H]([C@H](OC(=O)c3ccccc3)[C@]3(O)C[C@H](OC(=O)[C@H](O)[C@@H](NC(=O)c4ccccc4)c4ccccc4)C(C)=C1C3(C)C)[C@]1(OC(C)=O)CO[C@@H]1C[C@@H]2O [PTX, Paclitaxel, reference compound] |  |  |  |  |  |  | 0.81 ± 0.09 (≈ 0.949 µM) | 9.27 ± 1.12 (≈ 10.9 µM) | 3.62 ± 0.04 (≈ 4.24 µM) | 0.73 ± 0.04 (≈ 0.855 µM) | 59.4 ± 3.21 (≈ 69.6 µM) | 5.41 ± 0.19 (≈ 6.34 µM) |
| 2 | [pGlu]HWSYRLRFIP-NHEt (SMILES CCNC(=O)[C@@H]1CCCN1C(=O)[C@@H](NC(=O)[C@H](Cc1ccccc1)NC(=O)[C@H](CCCNC(=N)N)NC(=O)[C@H](CC(C)C)NC(=O)[C@H](CCCNC(=N)N)NC(=O)[C@H](Cc1ccc(O)cc1)NC(=O)[C@H](CO)NC(=O)[C@H](Cc1c[nH]c2ccccc12)NC(=O)[C@H](Cc1c[nH]cn1)NC(=O)[C@@H]1CCC(=O)N1)[C@@H](C)CC) [peptide HS1002] |  |  |  |  |  |  |  |  |  |  |  |  |

Source: patent US20240247031A1, “COMPOSITION FOR TREATING CANCER CONTAINING TELOMERASE-TARGETING GNRH ANTAGONIST-DERIVED PEPTIDE HS1002” (Research & Business Foundation Sungkyunkwan University, priority 2023, published 2024)
